This is an account of results in US8669256B2, “Substituted thieno[2,3-b]pyrazine compounds as modulators of B-Raf kinase activity” (Merck Sharp & Dohme B.V., priority 2010, dated 2014).

Experiment [1] concerns the target T1, GST-tagged human recombinant active B-Raf (Δ1-415) (Homo sapiens, UniProt P15056).
T1 construct: GST; purchased Upstate/Millipore
As to the kind of experiment: B-Raf kinase activity, IMAP coupled assay (B-Raf/MEK1/ERK2, fluorescence polarization). The format is biochemical. The note with it: bounds also given as pIC50 (>6, >7, >8); 60 min pre-incubation with compound, ATP 50 μM; read-out: IC50, B-Raf IMAP assay. An outline of the steps: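 Coupled cascade: GST-B-Raf (Δ1-415; 0.2 U/ml) pre-incubated with compound (1% DMSO) 60 min at room temperature, then unactive MEK1 (64 ng/ml), unactive ERK2 (600 ng/ml), 50 nM fluorescein-Erktide and 50 μM ATP added for 60 min at 30 °C, pH 7.2 Tris buffer. Phosphopeptide captured on IMAP beads (60 min); fluorescence polarization read.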
A general note: Polarisation of emitted light reports the rotation of a fluorescent probe.

Experiment [2] concerns phosphorylation of ERK1/2 in A375 cells containing mutant B-Raf (V600E). As to the kind of experiment: Phospho-ERK FACE assay in A375 (B-Raf mutated) melanoma cell line. The format is cell-based. The note with it: Homo sapiens, read-out: IC50, A375 melanoma phospho-ERK assay. In outline:
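A375 cells (B-Raf V600E), serum-starved overnight in 0.1% FBS, exposed to compounds for 2 hours at 37° C (1% DMSO). Fixed cells probed with anti-phospho-ERK1/2 (Thr202/Tyr204, Thr185/Tyr187) antibody overnight at 4° C, total ERK on a separate plate. HRP-secondary chemiluminescence read-out.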

[3] abbreviates: A-375, A375 cells, 2 hours incubation, class between 10 μM and 1 μM (5<pIC50<6).
Setting [4] is: A-375, A375 cells, 2 hours incubation, between 1 μM and 100 nM (6<pIC50<7).
[5] abbreviates: A-375, A375 cells, 2 hours incubation, class given as below 100 nM (pIC50>7).

Molecules are shown by their SMILES. Where two headings read alike, the source gives them in different places.

T1 sequence (P15056 416-766, stated change not applied): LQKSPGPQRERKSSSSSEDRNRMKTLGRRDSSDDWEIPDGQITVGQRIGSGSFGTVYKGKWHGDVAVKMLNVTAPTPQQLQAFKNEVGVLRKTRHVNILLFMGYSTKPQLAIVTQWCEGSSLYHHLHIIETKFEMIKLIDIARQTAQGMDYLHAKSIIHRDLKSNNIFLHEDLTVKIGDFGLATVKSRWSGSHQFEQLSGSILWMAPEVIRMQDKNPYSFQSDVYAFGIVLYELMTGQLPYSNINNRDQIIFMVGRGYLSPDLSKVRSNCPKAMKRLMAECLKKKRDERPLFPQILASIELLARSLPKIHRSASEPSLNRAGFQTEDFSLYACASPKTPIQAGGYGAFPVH

Regarding `Cc1ccc(NC(=O)c2ccc(F)c(C(F)(F)F)c2)cc1NC(=O)c1cc2nccnc2s1` [Example 37, N-(5-(4-fluoro-3-(trifluoromethyl)benzamido)-2-methylphenyl)thieno[2,3-b]pyrazine-6-carboxamide], the half-inhibitory concentration (IC50) – broadly, the concentration needed to halve the response being measured – is < 100 nM in experiment [1] and 1000 to 10000 nM in experiment [2] (setting [3]).
As to `Cc1ccc(NC(=O)c2cccc(C(F)(F)F)c2F)cc1NC(=O)c1cc2nccnc2s1` [Example 38, N-(5-(2-fluoro-3-(trifluoromethyl)benzamido)-2-methylphenyl)thieno[2,3-b]pyrazine-6-carboxamide], the IC50 in experiment [1] was < 100 nM; in experiment [2] (setting [4]), 100 to 1000 nM.
On to `Cc1ccc(NC(=O)c2cc(OC(F)(F)F)ccc2F)cc1NC(=O)c1cc2nccnc2s1` [Example 39, N-(5-(2-fluoro-5-(trifluoromethoxy)benzamido)-2-methylphenyl)thieno[2,3-b]pyrazine-6-carboxamide], for which the IC50 in experiment [1] was < 100 nM; in experiment [2] (setting [3]), 1000 to 10000 nM.
On to `Cc1ccc(NC(=O)Nc2cccc(C(C)(C)C#N)c2)cc1NC(=O)c1cc2nccnc2s1` [Example 40, N-(5-(3-(3-(2-cyanopropan-2-yl)phenyl)ureido)-2-methylphenyl)thieno[2,3-b]pyrazine-6-carboxamide], for which the IC50 was < 100 nM in experiment [1] and 1000 to 10000 nM in experiment [2] (setting [3]).
On to `Cc1ccc(NC(=O)c2cccc(C(C)(C)C#N)c2)cc1NC(=O)c1sc2nccnc2c1Br` [Example 41, 7-bromo-N-(5-(3-(2-cyanopropan-2-yl)benzamido)-2-methylphenyl)thieno[2,3-b]pyrazine-6-carboxamide], for which the half-maximal inhibitory concentration (IC50) in experiment [1] was < 10 nM; in experiment [2] (A-375, 2 h), 100 to 1000 nM.
With `Cc1ccc(NC(=O)c2cccc(C(C)(C)C#N)c2)cc1NC(=O)c1sc2nccnc2c1C` [Example 42, N-(5-(3-(2-cyanopropan-2-yl)benzamido)-2-methylphenyl)-7-methylthieno[2,3-b]pyrazine-6-carboxamide], the 50% inhibitory concentration (IC50) is < 10 nM in experiment [1] and 100 to 1000 nM in experiment [2] (setting [4]).
For `Cc1ccc(NC(=O)c2cccc(C(C)(C)C#N)c2)cc1NC(=O)c1sc2nccnc2c1C#N` [Example 43, 7-cyano-N-(5-(3-(2-cyanopropan-2-yl)benzamido)-2-methylphenyl)thieno[2,3-b]pyrazine-6-carboxamide], in that order: < 10 nM and 100 to 1000 nM.
On the same counts, the results for `C=Cc1c(C(=O)Nc2cc(NC(=O)c3cccc(C(C)(C)C#N)c3)ccc2C)sc2nccnc12` [Example 44, N-(5-(3-(2-cyanopropan-2-yl)benzamido)-2-methylphenyl)-7-vinylthieno[2,3-b]pyrazine-6-carboxamide] are < 10 nM and 100 to 1000 nM.
Regarding `CCNc1c(C(=O)Nc2cc(NC(=O)c3cccc(C(C)(C)C#N)c3)ccc2C)sc2nccnc12` [Example 46, N-(5-(3-(2-cyanopropan-2-yl)benzamido)-2-methylphenyl)-7-(ethylamino)thieno[2,3-b]pyrazine-6-carboxamide], the concentration for half-maximal inhibition (IC50) in experiment [1] and in experiment [2] (setting [5]) was < 100 nM throughout.
For the compound `Cc1ccc(NC(=O)c2cccc(C(C)(C)C#N)c2)cc1NC(=O)c1sc2ncc(C#N)nc2c1N` [Example 49, 7-amino-2-cyano-N-(5-(3-(2-cyanopropan-2-yl)benzamido)-2-methylphenyl)thieno[2,3-b]pyrazine-6-carboxamide], the figures for the IC50 in experiment [1] and in experiment [2] (setting [4]) were < 100 nM and 100 to 1000 nM, respectively.
As to `Cc1ccc(NC(=O)c2cccc(C(C)(C)C#N)c2)cc1NC(=O)c1sc2ncc(-c3ccco3)nc2c1N` [Example 50, 7-amino-N-(5-(3-(2-cyanopropan-2-yl)benzamido)-2-methylphenyl)-2-(furan-2-yl)thieno[2,3-b]pyrazine-6-carboxamide], the IC50 in experiment [1] and in experiment [2] (setting [5]) was < 100 nM throughout.
With `CC(C)(C#N)c1cccc(C(=O)Nc2ccc(Br)c(NC(=O)c3cc4nccnc4s3)c2)c1` [Example 51, N-(2-bromo-5-(3-(2-cyanopropan-2-yl)benzamido)phenyl)thieno[2,3-b]pyrazine-6-carboxamide], the results for the IC50 in experiment [1] and in experiment [2] (setting [4]) were < 100 nM and 100 to 1000 nM, respectively.
Take `Cc1ccc(NC(=O)c2cccc(C(F)(F)F)c2)cc1NC(=O)c1cc2nc(-c3cccnc3)cnc2s1` [Example 53, N-(2-methyl-5-(3-(trifluoromethyl)benzamido)phenyl)-2-(pyridin-3-yl)thieno[2,3-b]pyrazine-6-carboxamide]: the half-inhibitory concentration (IC50) in experiment [1] is < 100 nM; in experiment [2] (setting [4]), 100 to 1000 nM.
In the case of `Cc1ccc(NC(=O)c2cccc(C(F)(F)F)c2)cc1NC(=O)c1sc2nccnc2c1N` [Example 54, 7-amino-N-(2-methyl-5-(3-(trifluoromethyl)benzamido)phenyl)thieno[2,3-b]pyrazine-6-carboxamide], the values for the IC50 in experiment [1] and in experiment [2] (setting [5]) were < 10 nM and < 100 nM, respectively.
Consider `CC(C)(C#N)c1cccc(C(=O)Nc2cc(NC(=O)c3cc4nccnc4s3)c(F)cc2F)c1` [Example 55, N-(5-(3-(2-cyanopropan-2-yl)benzamido)-2,4-difluorophenyl)thieno[2,3-b]pyrazine-6-carboxamide], for which the IC50 in experiment [1] is < 100 nM; in experiment [2] (setting [3]), 1000 to 10000 nM.
Take `Cc1ccc(NC(=O)c2cccc(C(C)(C)C#N)c2)cc1NC(=O)c1cc2ncc(NCCN(C)C)nc2s1` [Example 61, N-(5-(3-(2-cyanopropan-2-yl)benzamido)-2-methylphenyl)-3-(2-(dimethylamino)ethylamino)thieno[2,3-b]pyrazine-6-carboxamide]: the IC50 in experiment [1] is < 10 nM; in experiment [2] (setting [4]) it was 100 to 1000 nM.
Consider `Cc1ccc(NC(=O)c2cccc(C(C)(C)C#N)c2)cc1NC(=O)c1cc2ncc(NCCN3CCOCC3)nc2s1` [Example 63, N-(5-(3-(2-cyanopropan-2-yl)benzamido)-2-methylphenyl)-3-(2-morpholinoethylamino)thieno[2,3-b]pyrazine-6-carboxamide], for which the IC50 in experiment [1] was < 10 nM; in experiment [2] (setting [4]), 100 to 1000 nM.
Take `COCCNc1cnc2cc(C(=O)Nc3cc(NC(=O)c4cccc(C(C)(C)C#N)c4)ccc3C)sc2n1` [Example 65, N-(5-(3-(2-cyanopropan-2-yl)benzamido)-2-methylphenyl)-3-(2-methoxyethylamino)thieno[2,3-b]pyrazine-6-carboxamide]: the results for the IC50 in experiment [1] and in experiment [2] (setting [4]) were < 10 nM and 100 to 1000 nM, respectively.
As for `Cc1ccc(NC(=O)c2cccc(C(C)(C)C#N)c2)cc1NC(=O)c1cc2ncc(NCCO)nc2s1` [Example 66, N-(5-(3-(2-cyanopropan-2-yl)benzamido)-2-methylphenyl)-3-(2-hydroxyethylamino)thieno[2,3-b]pyrazine-6-carboxamide], the IC50 in experiment [1] is < 10 nM; in experiment [2] (setting [3]), 1000 to 10000 nM.
For `CCNc1cnc2cc(C(=O)Nc3cc(NC(=O)c4cccc(C(C)(C)C#N)c4)ccc3C)sc2n1` [Example 67, N-(5-(3-(2-cyanopropan-2-yl)benzamido)-2-methylphenyl)-3-(ethylamino)thieno[2,3-b]pyrazine-6-carboxamide], the half-inhibitory concentration (IC50) in experiment [1] was < 100 nM; in experiment [2] (setting [4]) it was 100 to 1000 nM.
On the same counts, the results for `Cc1ccc(NC(=O)c2cccc(C(C)(C)C#N)c2)cc1NC(=O)c1cc2ncc(-c3cccnc3)nc2s1` [Example 68, N-(5-(3-(2-cyanopropan-2-yl)benzamido)-2-methylphenyl)-3-(pyridin-3-yl)thieno[2,3-b]pyrazine-6-carboxamide] are < 100 nM and 100 to 1000 nM.
As for `Cc1ccc(NC(=O)c2cccc(C(C)(C)C#N)c2)cc1NC(=O)c1cc2ncc(-c3ccncc3)nc2s1` [Example 69, N-(5-(3-(2-cyanopropan-2-yl)benzamido)-2-methylphenyl)-3-(pyridin-4-yl)thieno[2,3-b]pyrazine-6-carboxamide], the concentration for half-maximal inhibition (IC50) is < 10 nM in experiment [1] and < 100 nM in experiment [2] (setting [5]).
Regarding `Cc1cnc2cc(C(=O)Nc3cc(NC(=O)c4cccc(C(C)(C)C#N)c4)ccc3C)sc2n1` [Example 70, N-(5-(3-(2-cyanopropan-2-yl)benzamido)-2-methylphenyl)-3-methylthieno[2,3-b]pyrazine-6-carboxamide], the IC50 is < 100 nM in experiment [1] and 100 to 1000 nM in experiment [2] (setting [4]).
For `Cc1ccc(NC(=O)c2cccc(C(C)(C)C#N)c2)cc1C(=O)Nc1cc2nccnc2s1` [Example 73, 5-(3-(2-cyanopropan-2-yl)benzamido)-2-methyl-N-(thieno[2,3-b]pyrazin-6-yl)benzamide], in that order: < 100 nM and 100 to 1000 nM.
